Consider 16 compounds from patent US6784201B2, “Benzothiepines having activity as inhibitors of ileal bile acid transport and taurocholate uptake” (G.D. Searle & Company, priority 1994, dated 2004).

For one data set, the target named is T1, human IBAT (Homo sapiens, UniProt Q12908).
T1 construct: expressed in transfected cells; host or cells: Baby hamster kidney (BHK) cells, clone H14
T1 sequence (Q12908 1-348): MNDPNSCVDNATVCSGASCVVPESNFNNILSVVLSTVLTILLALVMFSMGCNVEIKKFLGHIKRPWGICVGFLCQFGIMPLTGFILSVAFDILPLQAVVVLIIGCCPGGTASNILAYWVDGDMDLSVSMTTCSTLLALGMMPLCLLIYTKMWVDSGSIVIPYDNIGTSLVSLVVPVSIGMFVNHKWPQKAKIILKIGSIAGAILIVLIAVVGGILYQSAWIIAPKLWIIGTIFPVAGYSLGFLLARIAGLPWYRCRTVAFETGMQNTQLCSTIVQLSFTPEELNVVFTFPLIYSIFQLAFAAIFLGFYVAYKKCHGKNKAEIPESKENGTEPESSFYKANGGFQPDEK
The data set is described as follows: In vitro assay of IBAT-mediated uptake of [14C]-taurocholate (TC) in H14 cells. It counts as cell-based. An outline of the steps: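 BHK cells stably expressing human IBAT (H14) were incubated 2 h at 37° C with compound and 3 μM final [14C]-taurocholate in DMEM (4.5 g/L glucose) plus 0.2% fatty acid-free BSA. After cold PBS washes, cell-associated radioactivity was measured by scintillation counting.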

A further data set deals with fecal bile acid (FBA). Nature of the data set: Rat gavage assay (fecal bile acid increase). In kind it is in vivo. How it is done: Male Wister rats (275-300 g) are administered IBAT inhibitors using an oral gavage procedure. Drug or vehicle (0.2% Tween 80 in water) is administered once a day (9:00-10:0 a.m.) for 4 days at varying dosages in a final volume of 2 mL per kilogram of body weight. Total fecal samples are collected during the final 48 hours of the treatment period and analyzed for bile acid content using an enzymatic assay as described below. Compound efficacy is determined by comparison of the increase in fecal bile acid (FBA) concentration in treated rats to the mean FBA concentration of rats in the vehicle group.
Measurement of Fecal Bile Acid Concentration (FBA)
Total fecal output from individually housed hamsters was collected for 24 or 48 hours, dried under a stream of nitrogen, pulverized and weighed. Approximately 0.1 gram was weighed out and extracted into an organic solvent (butanol/water). Following separation and drying, the residue was dissolved in methanol and the amount of bile acid present was measured enzymatically using the 3α-hydroxysteroid steroid dehydrogenase reaction with bile acids to reduce NAD. (Reference: Mashige, F., et al. (1981) Clin. Chem. 27, 1352).

In the next data set the test system is H14 cells. The data set is described as follows: In vitro assay of uptake of [14C]-alanine. It counts as cell-based, hamster. How it is done: Baby hamster kidney cells (BHK) transfected with the cDNA of human IBAT (H14 cells) are seeded at 60,000 cells/well in 96 well Top-Count tissue culture plates for assays run within in 24 hours of seeding, 30,000 cells/well for assays run within 48 hours, and 10,000 cells/well for assays run within 72 hours.
On the day of assay, the cell monolayer is gently washed once with 100 μl assay buffer (Dulbecco's Modified Eagle's medium with 4.5 g/L glucose+0.2% (w/v) fatty acid free bovine serum albumin-(FAF)BSA). To each well 50 μl of a two-fold concentrate of test compound in assay buffer is added along with 50 μl of 6 μM [^14C]-taurocholate in assay buffer (final concentration of 3 μM [^14C]-taurocholate). The cell culture plates are incubated 2 hours at 37° C. prior to gently washing each well twice with 100 μl 4° C. Dulbecco's phosphate-buffered saline (PBS) containing 0.2% (w/v) (FAF)BSA. The wells are then gently washed once with 100 μl 4° C. PBS without (FAF)BSA. To each 200 μl of liquid scintillation counting fluid is added, the plates are heat sealed and shaken for 30 minutes at room temperature prior to measuring the amount of radioactivity in each well on a Packard Top-Count instrument.
In Vitro Assay of Compounds that Inhibit Uptake of [^14C3-Alanine
The alanine uptake assay is performed in an identical fashion to the taurocholate assay, with the exception that labeled alanine is substituted for the labeled taurocholate.

[1] abbreviates: In Vitro Taurocholate Uptake, Table 10, read-out: Human TC IC50.
The mark [2] stands for this setting: H14 cells, Table 5, read-out: IC50 uM (In vitro Taurocholate Cell Uptake).

Counter-ions that a name gives are not always drawn. Like-named read-outs stand apart in the source and are kept apart here.

The term melting point denotes the temperature of the solid-liquid transition. `CCCCC1(CCCC)CS(=O)(=O)c2ccc(N(C)C)cc2[C@@H](c2cccc(NC(=O)OCCC[N+]34CCN(CC3)CC4)c2)[C@H]1O.[Cl-]` gave a melting point of 218 to 225 °C.

Regarding `CCCCC1(CCCC)CS(=O)(=O)c2ccc(N(C)C)cc2[C@@H](c2cccc(NC(=O)Nc3cccc(C[N+]45CCN(CC4)CC5)c3)c2)[C@H]1O.[Cl-]`, the melting point lay in the range of 246 to 248 °C.

`CCCCC1(CCCC)CS(=O)(=O)c2ccc(N(C)C)cc2[C@@H](c2ccc(OCCCCC[n+]3cccc4ccccc43)cc2)[C@H]1O` (as salt: methanesulfonate) [Example 1412, (4R-cis)-1-[5-[4-[3,3-Dibutyl-7-(dimethylamino)-2,3,4,5-tetrahydro-4-hydroxy-1,1-dioxido-1-benzothiepin-5-yl]phenoxy]pentyl]quinolinium, methanesulfonate (Salt)]: the melting point was determined as 136 °C.

Usually IC50 stands for the concentration that gives 50% inhibition. As to `CCCCC1(CCCC)CS(=O)(=O)c2ccc(N(C)C)cc2[C@@H](c2ccc(OCCCCC[N+](C)(C)CCCCCC[N+](C)(C)CCCCCOc3ccc([C@@H]4c5cc(N(C)C)ccc5S(=O)(=O)CC(CCCC)(CCCC)[C@@H]4O)cc3)cc2)[C@H]1O` (relative stereo) [Example 1419, [4R-[4a,5a(4R*,5R*)]]-N,N′-bis[5-[4-[3,3-Dibutyl-7-(dimethylamino)-2,3,4,5-tetrahydro-4-hydroxy-1,1-dioxido-1-benzothiepin-5-yl]phenoxy]pentyl]-N,N,N′N′-tetramethyl-1,6-hexanediaminium dichloride], the melting point lay within 178 to 182 °C. Moreover, at human IBAT (setting [1]), the IC50 came out at 0.003 µM. In addition, the “Delta (micromoles fecal bile acid per day)” value in the data set with fecal bile acid (FBA) (dose 2 mg/kg/day) is 28.5 micromoles fecal bile acid per day. Moreover, the “Delta (micromoles fecal bile acid per day)” value in the data set with fecal bile acid (FBA) (dose .016 mg/kg/day) is recorded as 5.8 micromoles fecal bile acid per day. In the data set on fecal bile acid (FBA) (dose .08 mg/kg/day), the “Delta (micromoles fecal bile acid per day)” value is reported as 10.3 micromoles fecal bile acid per day. The “Delta (micromoles fecal bile acid per day)” value with fecal bile acid (FBA) (dose .4 mg/kg/day) is 13.9 micromoles fecal bile acid per day.

Regarding `CCCCC1(CC)CS(=O)(=O)c2ccccc2C(=C2CCCCC2)C1O` (stereo not shown) [Example 10a, 3-Butyl-3-ethyl-4-hydroxy-5-cyclohexylidine--2,3,4,5-tetrahydrobenzothiepine-1,1-dioxide], the “% Inhibition of Alanine Uptake @ 100 uM” value with H14 cells (100 uM) worked out at 77.6%. Also, the IC50 at human IBAT (setting [2]) came to 7 µM.

In general, inhibition refers to the change of the read-out against control, counted positive when it falls. Low readings indicate little suppression, high ones strong suppression. Consider `CCCCC1(CC)CS(=O)(=O)c2cc(OCC)ccc2C(c2ccccc2)C1O` (stereo not shown) [Example 28], for which the inhibition at 20 µM in the data set on H14 cells (Mesocricetus auratus) was 31%. Besides, on human IBAT (setting [2]), the IC50 stood at 8 µM.

In the case of `CCCC[C@]1(CC)CS(=O)(=O)c2ccc(NO)cc2[C@H](c2ccccc2)[C@@H]1O` [Example 37, (3α,4α,5α) 3-Butyl-3-ethyl-4-hydroxy-7-hydroxyamino-5-phenyl-2,3,4,5-tetrahydrobenzothiepine-1,1-dioxide], in the data set with H14 cells (Mesocricetus auratus, 5 μM), the inhibition at 5 µM was 0%. Besides, on human IBAT (setting [2]), the IC50 is 3 µM.

For `CCCCCCNc1ccc2c(c1)[C@@H](c1ccccc1)[C@@H](O)[C@](CC)(CCCC)CS2(=O)=O` [Example 41, (3α,4β,5β) 3-Butyl-3-ethyl-7-(n-hexylamino)-4-hydroxy-5-phenyl-2,3,4,5-tetrahydrobenzothiepine-1,1-dioxide], in the data set on H14 cells (Mesocricetus auratus), the inhibition at 20 µM worked out at 0%. Moreover, the IC50 on human IBAT (setting [2]) was 2 µM.

Consider `CCCC[C@]1(CC)CS(=O)(=O)c2ccccc2[C@@H](c2ccc(C(=O)OC)cc2)[C@H]1O` [Example 43, (3α,4β,5β) 3-Butyl-5-(4-carbomethoxyphenyl)-3-ethyl-4-hydroxy-2,3,4,5-tetrahydrobenzothiepine-1,1-dioxide], for which the inhibition at 25 µM in the data set on H14 cells (Mesocricetus auratus, 25 μM) was 16%. Moreover, the IC50 at human IBAT (setting [2]) was 1.5 µM.

For `CCCC[C@]1(CC)CS(=O)(=O)c2ccc(OC)cc2[C@H](c2ccccc2)[C@@H]1O` [Example 48, (3α,4α,5α) 3-Butyl-3-ethyl-4-hydroxy-7-methoxy-5-phenyl-2,3,4,5-tetrahydrobenzothiepine-1,1-dioxide], in the data set with H14 cells (Mesocricetus auratus), the inhibition at 20 µM turned out to be 22%. The IC50 on human IBAT (setting [2]) was 2 µM.

Turning to `CCC1(CC)CS(=O)(=O)c2ccc(NC(=O)OCc3ccccc3)cc2[C@@H](c2ccccc2)[C@H]1O` [Example 286], the melting point lay in the range of 180 to 181 °C. In addition, the IC50 on human IBAT (read-out: Human TC IC50) came to 19 µM.

For the compound `CCCCC1(CCCC)CS(=O)(=O)c2ccc(N(C)C)cc2[C@@H](c2ccc(OCCCCS(N)(=O)=O)cc2)[C@H]1O` [Example 1405], the melting point lay in the range of 108 to 110 °C. For the same compound, the IC50 at human IBAT (setting [1]) was determined as 0.021 µM.

Regarding `CCCCC1(CCCC)CS(=O)(=O)c2ccc(N(C)C)cc2[C@@H](c2ccc(OCCCCCC(C(=O)O)C(=O)O)cc2)[C@H]1O` [Example 1413, (4S-cis)-[5-[4-[3,3-Dibutyl-7-(dimethylamino)-2,3,4,5-tetrahydro-4-hydroxy-1,1-dioxido-1-benzothiepin-5-yl]phenoxy]pentyl]propanedioic acid], the melting point was 118 °C. For the same compound, the IC50 at human IBAT (setting [1]) was 0.003 µM. In the data set on fecal bile acid (FBA) (dose 5 mg/kg/day), the “Delta (micromoles fecal bile acid per day)” value is on record as 52.3 micromoles fecal bile acid per day. In addition, the “Delta (micromoles fecal bile acid per day)” value in the data set with fecal bile acid (FBA) (dose .04 mg/kg/day) is 19 micromoles fecal bile acid per day. Further, in the data set with fecal bile acid (FBA) (dose .2 mg/kg/day), the “Delta (micromoles fecal bile acid per day)” value was 42.4 micromoles fecal bile acid per day.

`CCCCC1(CCCC)CS(=O)(=O)c2ccc(N(C)C)cc2[C@@H](c2ccc(OCCCCC[N+](C)(C)CC[N+](C)(C)CC)cc2)[C@H]1O` [Example 1418, (4R-cis)-N-[5-[4-[3,3-Dibutyl-7-(dimethylamino)-2,3,4,5-tetrahydro-4-hydroxy-1,1-dioxido-1-benzothiepin-5-yl]phenoxy]pentyl]-N′-ethyl-N,N,N′,N′-tetramethyl-1,2-ethanediaminium dichloride] showed a melting point of 193 to 197 °C. At human IBAT (setting [1]), the half-maximal inhibitory concentration (IC50) is less than 0.001 µM. Besides, in the data set on fecal bile acid (FBA) (dose 2 mg/kg/day), the “Delta (micromoles fecal bile acid per day)” value is given as 20.3 micromoles fecal bile acid per day. Moreover, the “Delta (micromoles fecal bile acid per day)” value with fecal bile acid (FBA) (dose .016 mg/kg/day) is reported as −10 micromoles fecal bile acid per day. Further, in the data set with fecal bile acid (FBA) (dose .08 mg/kg/day), the “Delta (micromoles fecal bile acid per day)” value is on record as −4.6 micromoles fecal bile acid per day. Also, in the data set on fecal bile acid (FBA) (dose .4 mg/kg/day), the “Delta (micromoles fecal bile acid per day)” value was 29.5 micromoles fecal bile acid per day.

`CCCCC1(CCCC)CS(=O)(=O)c2ccc(N(C)C)cc2[C@@H](c2ccc(OCCCCCNC(=N)N)cc2)[C@H]1O` [Example 1422, (4R-cis)-[5-[4-[3,3-Dibutyl-7-(dimethylamino)-2,3,4,5-tetrahydro-4-hydroxy-1,1-dioxido-1-benzothiepin-5-yl]phenoxy]pentyl]guanidine] registered a melting point of 67 to 72.5 °C. For the same compound, the IC50 at human IBAT (setting [1]) turned out to be 0.003 µM.

`CCCCC1(CCCC)CS(=O)(=O)c2ccc(N(C)C)cc2[C@@H](c2ccc(OCc3ccc(C(=O)O)cc3)cc2)[C@H]1O` [Example 1424, (4R-cis)-4-[[4-[3,3-Dibutyl-7-(dimethylamino)-2,3,4,5-tetrahydro-4-hydroxy-1,1-dioxido-1-benzothiepin-5-yl]phenoxy]methyl]benzoic acid]: the melting point is 156 to 159 °C. At human IBAT (setting [1]), the IC50 was determined as 0.014 µM.
